Molecules are shown by their SMILES.

The target of assay [1] is T1, GLYT1 subtype of the glycine transporter (Rattus norvegicus, UniProt P28572).
T1 construct: C6 glioma cell expressing GLYT1 subtype of the glycine transporter; host or cells: C6 glioma cells
T1 sequence (P28572 1-638): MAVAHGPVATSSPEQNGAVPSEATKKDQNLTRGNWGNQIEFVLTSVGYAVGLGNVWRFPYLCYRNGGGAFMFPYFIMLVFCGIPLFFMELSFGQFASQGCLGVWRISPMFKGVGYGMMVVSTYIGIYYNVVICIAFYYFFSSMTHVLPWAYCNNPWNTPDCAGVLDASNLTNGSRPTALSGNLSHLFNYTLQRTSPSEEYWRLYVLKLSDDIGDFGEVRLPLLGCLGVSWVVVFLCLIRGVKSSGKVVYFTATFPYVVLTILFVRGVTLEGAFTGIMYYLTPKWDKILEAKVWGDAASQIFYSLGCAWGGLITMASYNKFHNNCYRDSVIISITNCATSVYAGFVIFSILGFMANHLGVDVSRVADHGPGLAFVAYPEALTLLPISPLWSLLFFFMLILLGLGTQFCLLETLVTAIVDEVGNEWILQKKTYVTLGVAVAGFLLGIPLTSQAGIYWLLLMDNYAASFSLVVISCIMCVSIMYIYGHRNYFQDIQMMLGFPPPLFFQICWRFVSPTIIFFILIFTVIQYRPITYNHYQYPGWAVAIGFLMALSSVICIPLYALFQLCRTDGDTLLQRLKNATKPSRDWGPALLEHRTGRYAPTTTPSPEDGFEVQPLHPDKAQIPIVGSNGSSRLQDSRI
The experiment in a line: [3H]-glycine uptake assay in C6 glioma cells (action of inhibiting glycine transporter). The class given is cell-based. The following applies: 20 min at 37° C., read-out: GLYT-inhibiting activity IC50. How it is done:
1. Action of Inhibiting Glycine Transporter
C6 glioma cell (American Type Culture Collection) was cultured in DMEM containing 10% fetal bovine serum, 100 units/ml penicillin G and 0.1 mg/ml streptomycin sulfate in a CO2 incubator under conditions of 5% CO2 and 37° C.
[^3H]-glycine uptake was performed by the method of Gomeza, et al.
C6 glioma cells were plated out at a concentration of 2×10^4 cells/well in a 96-well plate (Culturplate, Packard Co.), for culturing for 2 days. Subsequently, [^3H]-glycine uptake was tested. The cell was rinsed once in a buffer (150 mM NaCl, 5 mM KCl, 1 mM CaCl2, 1 mM MgCl2, 10 mM glucose, 5 mM L-alanine, 10 mM Hepes-Na, pH 7.4), followed by subsequent addition of the buffer, for incubation at 37° C. for 10 minutes.
After incubation, the buffer was exchanged to a reaction buffer including [^3H]-glycine (about 0.2 μM, 41 Ci/mmol, New England Nuclear)and a compound to be assessed, for incubation at 37° C. for another 20 minutes. After 20-min reaction, the reaction mixture was rinsed in ice-cold PBS (phosphate buffered saline). The cell was dissolved in 0.1N NaOH solution, to assay the radioactivity incorporated with a liquid scintillation counter. The specific incorporation was defined as a portion substituted with 3 mM sarcosine in the total incorporation. The test compound was assessed by determining the incorporation-inhibiting ratio of the specific incorporation.

Assay [2] has as its system (+)-HA966-induced enhancement of activity. The experiment in a line: (+)-HA966-induced enhancement of activity in mouse. It is filed as in vivo, male ICR mouse. The following applies: orally given at 10 mg/kg; below 50% judged to have the effect. An excerpt:
Compound 1: • 3-(biphenyl-4-yl)-4-(2-methoxyphenyl)-5-methyl-4H-1,2,4-triazole (Japanese Patent unexamined uplication No. 2000-63363; Example 33) Compound 2: • 3-(biphenyl-4-yl)-5-(furan-2-yl)-4-phenyl-4H-1,2,4-triazole (LTPBP42 CD-ROM catalog 1996 of LaboTest Co. (Freiberg, Germany)) Compound 3: • 3-(biphenyl-4-yl)-5-ethyl-4-(2-methoxyphenyl)-4H-1,2,4-triazole (Japanese Patent unexamined publication No. 2000-63363; Example 23) 2. Experimental Method of (+)-HA966—Induced Enhancement of Activity in Mouse
The method reported previously (J. Neural Transm., 97: 175–185, 1994) was used for carrying out the experiment with modification. • Animal: male ICR mouse (Nippon SLC; age 5 to 7 weeks) • Chemical drug: reserpine (Apoplon Injection of 1 mg/ml; manufactured by Daiichi Pharmaceuticals Co., Ltd.), (+)-HA966 (Proc. Nat. Acad. Sci. U.S.A., 87, 347–351, 1990), α-methyl-para-tyrosine methyl ester (Sigma,Inc.). • Experimental apparatus: Supermex (Muromachi Machine) Experimental Method • (1) Pharmaceutical drug-treated groups were defined as follows. […] The effect was determined as follows. […] It was calculated by following formula. […]

On to `CC(C)c1nnc(-c2ccc(-c3ccccc3)cc2)n1-c1ccccc1F` [Production Example 1, 3-Biphenyl-4-yl-4-(2-fluorophenyl)-5-isopropyl-4H-1,2,4-triazole], for which, in assay [1], the IC50 came out at 360 nM. The “normalized activity ((+)-HA966-induced enhancement = 100%)” value in assay [2] worked out at 43%.

As usually defined, the IC50 is the midpoint of a concentration-inhibition curve.

Values taken from US7034047B2, “Triazole derivative” (Astellas Pharma, Inc., priority 2000, dated 2006).
